Assay results reported in US20210008149A1, “WNT5A PEPTIDES IN REDUCTION OF CANCER STEM CELLS” (WNTRESEARCH AB, priority 2017, published 2021).
Where two headings read alike, the source gives them in different places.

Experiments:
[1] = test system: human HT29 colon cancer cells; assay: CellTiter-Blue fluorescence cell viability assay; conditions: for IC50: read-out: IC50 value, cell viability, from dose-response curves
Description: (§9) Colon cancer HT29 cells were treated with either FOLFOX alone (green triangles), 5-FU alone (orange triangles), oxaliplatin alone (black squares), Foxy-5 alone (red squares) or FOLFOX+Foxy-5 (blue circles). The cytotoxic effects of these different treatments were evaluated by CellTiter-Blue™ fluorescence cell viability assay. […] The data are normalized and shown as means±SEM.

HT29 colon cancer cells = assay: HT29 colon cancer xenograft in nude mice, tumours analysed by IHC and mRNA; format: in vivo; conditions: HT29-derived tumours
Excerpt: (§1) Representative photos from saline- and Foxy-5-treated animals are presented. From each such slide, 4 boxes were put on top of the stained tissue and for each of them the ALDH staining was scored as a percentage of stained cells multiplied by the staining intensity. The following score was used for percentage stained cells; 0 for positive stained cells <5%, 1 for positive cells 5-25%, 2 for positive cells 26-50%, 3 for positive cells 51-75%, 4 for positive cells >75%.
(§2) For staining intensities, the stained areas were scored as; 1 for weak staining, 2 for medium staining and 3 for strong staining. For each box a final score was obtained by multiplying the score for percentage of positively stained cells with the score for staining intensity. Finally, a mean value was obtained from the 4 boxes for each tumour. The same scoring protocol was then used for all IHC analyses presented in the present study.
as §1, with “Representative images” for “Representative photos”, “from vehicle (saline)” for “from saline-”, “slide, 6” for “slide, 4”, “were randomly” for “were”
as §2, with “6” for “4”, “tumour sample.” for “tumour.”
(§3) Tumours from two different human colon cancer cell types HT29 and Caco-2 cells were examined by immunohistochemistry (IHC) and mRNA (see FIG. 1).
(§4) On day 0: Subcutaneous injections of HT29 or Caco-2 colon cancer cells in nude mice were done.
(§5) On day 7 after tumours have been established in the mice, intraperitoneal (I.P) injections of vehicle (saline) alone (gr 1) or Foxy-5 (2 μg/g; gr 2) were done.
(§6) On days 9-23 tumour growth and animal weight was monitored—then +8 I.P. injections every 2nd day of either vehicle alone (gr 1) or Foxy-5 (2 μg/g; gr 2).
(§7) On day 24 the two types of tumours (Caco-2 and HT29 derived) (divided in two parts of which one was fixed and the other frozen at −80° C.) were analyzed by IHC for their protein expression of COX-2, 15PGDH, β-catenin, Ascl2, ALDH and Dckl1 and for their mRNA content of ALDH and Dckl1 (ALDH is a general stem cell marker and Dck1 is a specific marker for colon CSCs).

[2] = test system: Caco-2 colon cancer cells; assay: Caco-2 colon cancer xenograft in nude mice, tumours analysed by IHC and mRNA; format: in vivo; conditions: Caco-2-derived tumours
Excerpt: as §1, §2
as §1, with “Representative images” for “Representative photos”, “from vehicle (saline)” for “from saline-”, “slide, 6” for “slide, 4”, “were randomly” for “were”
as §2, with “6” for “4”, “tumour sample.” for “tumour.”
as §3, §4, §5, §6, §7

[3] = test system: colon cancer xenograph tissue; assay: Colon cancer xenograft tissue (cell line not stated), IHC of COX-2 and 15-PGDH; format: in vivo, nude mice; conditions: Foxy-5 2 μg/g I.P., vs vehicle
Excerpt: The IHC stainings were scored exactly as described in detail for the IHC staining in FIG. 1.
(§8) Representative images from vehicle- and Foxy-5-treated animals are presented. From each such slide 6 boxes were put on top of the stained tissue and for each of them the Cox-2 staining was scored as a percentage of stained cells multiplied by the staining intensity as described in detail for FIG. 2.
as §8, with “15-PGDH” for “Cox-2”
On day 0: Subcutaneous injections of HT29 or Caco-2 colon cancer cells in nude mice were done. […]
as §6, §7

colon cancer cells [4] = assay: In vitro treatment of colon cancer cells (Mehdawi et al., 2016); format: cell-based; conditions: in vitro conditions, inventors' own observation
[5] = test system: human HT29 colon cancer cells
Description: as §9

colon cancer cells [6] = conditions: in vitro; cited from earlier work
[7] = Foxy-5 2 μg/g I.P. every 2nd day, day 7-23, IHC and mRNA, day 24, vs vehicle
[8] = Foxy-5 2 μg/g I.P., vs vehicle-treated mice

Question: Which IC50 [1] does the source give for `O=c1[nH]cc(F)c(=O)[nH]1` [5-FU, 5-fluorouracil] here?
Answer: The IC50 was 6.8 µM.

Question: For `Nc1nc2c(c(=O)[nH]1)N(C=O)C(CNc1ccc(C(=O)N[C@@H](CCC(=O)O)C(=O)O)cc1)CN2` (stereo partly drawn) [folinic acid], which “cytotoxic effect on cell viability” value ([1]; monotherapy) is on record?
Answer: The value was “no cytotoxic effect”.

Question: For `O=C1[O][Pt]2([NH][C@@H]3CCCC[C@H]3[NH]2)[O]C1=O` [oxaliplatin], which IC50 [1] is on record?
Answer: Its IC50 is 3.4 µM.

Question: Which “active β-catenin nuclei expression” value (HT29 colon cancer cells; IHC, Foxy-5 2 μg/g I.P.) does the source give for MDGCEL [Foxy-5] here?
Answer: The value was “Decreased”.

Question: And the “β-catenin downstream target Ascl2 protein expression” value (HT29 colon cancer cells; IHC, Foxy-5 2 μg/g I.P.)?
Answer: The value was “reductions”.

Question: What about the “expression of the two stem cell biomarkers (ALDH and Dck1)” value (HT29 colon cancer cells; [7]) of the same molecule?
Answer: Its value is “significantly reduce”.

Question: And the tumour volume (HT29 colon cancer cells; [8])?
Answer: The tumour volume was “reductions”.

Question: What about the “active β-catenin nuclei expression” value ([2]; IHC, Foxy-5 2 μg/g I.P.) of the same molecule?
Answer: The value was “Decreased”.

Question: And the “β-catenin downstream target Ascl2 protein expression” value ([2]; IHC, Foxy-5 2 μg/g I.P.)?
Answer: Its value is “reductions”.

Question: And the “expression of the two stem cell biomarkers (ALDH and Dck1)” value [2, 7]?
Answer: The value was “significantly reduce”.

Question: And the tumour volume [2, 8]?
Answer: Its tumour volume is “reductions”.

Question: What about the “PGE2 degrading enzyme 15-PGDH expression” value [3] of the same molecule?
Answer: Its value is “increase”.

Question: And the “expression of the PGE2 generating enzyme COX-2” value [3]?
Answer: Its value is “decrease”.

Question: And the “number of CSCs” value (colon cancer cells [4])?
Answer: Its value is “not been able to detect any reduction”.

Question: And the “cytotoxic effect on cell viability” value [5]?
Answer: The value was “no cytotoxic effect”.

Question: What about the “expression of the PGE2 and lipoxin degrading enzyme 15-PGDH” value (colon cancer cells [6]) of the same molecule?
Answer: The value was “up-regulate”.

Question: What about the “expression of the PGE2 producing enzyme COX-2” value (colon cancer cells [6]) of the same molecule?
Answer: The value was “decrease”.

Question: What about the β-catenin signalling (colon cancer cells [6]) of the same molecule?
Answer: Its β-catenin signalling is “reduction”.

Question: And the “effect on the inhibitory effect of FOLFOX on cell viability” value ([1]; combined with FOLFOX)?
Answer: The value was “do not enhance or reduce”.

Question: And the “IC50 value, cell viability” value ([1]; from dose-response curves)?
Answer: The value was “no IC50 value could be determined”.

B1: WNT5A protein: full length WNT5A protein according to SEQ ID NO: 1, a non-canonical Wnt ligand (protein, listed as Homo sapiens)
chain: MKKSIGILSPGVALGMAGSAMSSKFFLVALAIFFSFAQVVIEANSWWSLGMNNPVQMSEVYIIGAQPLCSQLAGLSQGQKKLCHLYQDHMQYIGEGAKTGIKECQYQFRHRRWNCSTVDNTSVFGRVMQIGSRETAFTYAVSAAGVVNAMSRACREGELSTCGCSRAARPKDLPRDWLWGGCGDNIDYGYRFAKEFVDARERERIHAKGSYESARILMNLHNNEAGRRTVYNLADVACKCHGVSGSCSLKTCWLQLADFRKVGDALKEKYDSAAAMRLNSRGKLVQVNSRFNSPTTQDLVYIDPSPDYCVRNESTGSLGTQGRLCNKTSEGMDGCELMCCGRGYDQFKTVQTERCHCKFHWCCYVKCKKCTEIVDQFVCK
Question: For B1, which “number of CSCs” value (colon cancer cells [4]) is on record?
Answer: The value was “not been able to detect any reduction”.

Question: What about the “expression of the PGE2 and lipoxin degrading enzyme 15-PGDH” value (colon cancer cells [6]) of the same molecule?
Answer: The value was “up-regulate”.

Question: What about the “expression of the PGE2 producing enzyme COX-2” value (colon cancer cells [6]) of the same molecule?
Answer: Its value is “decrease”.

Question: And the β-catenin signalling (colon cancer cells [6])?
Answer: Its β-catenin signalling is “reduction”.
